Data taken from US7795255B2, “Rigidified compounds for modulating heparanase activity” (InSight Biopharmaceuticals Ltd., priority 2005, dated 2010).

Experiments:
β-FGF = β-FGF (Homo sapiens, UniProt P09038); assay: ELISA for determination of binding of β-FGF to heparin; conditions: for IC50: inhibition of β-FGF binding to heparin, NI = no inhibition; for inhibition of β-FGF binding to heparin: inhibition towards both growth factors
Experimental: ELISA for determination of binding of β-FGF to heparin: 96-well microplates were coated for 2 hours at 23-25° C. with 5 μg/ml heparin-albumin (Rimon Biotech) and blocked with 1% BSA in PBS, with 0.05% Tween, and 0.01% thimerosal for 2 hours. β-FGF was added to the plates at a concentration of 10 ng/ml and plates were incubated for 45 minutes at 23-25° C. The amount of β-FGF bound to heparin was detected using anti-FGF monoclonal antibody (Sigma Cat. No. F6162) at a concentration of 2.5 ng/ml and secondary antibodies Sheep anti-mouse IgG linked to horseradish peroxidase (1:3000) TMB (Pierce Cat. No. 34021) was used as a substrate for peroxidase. The plates were read at 450 nm with a reference wavelength of 630 nm using a VERSAmax plate reader.

[1] = target: T1, recombinant human pro-heparanase (H60) (Homo sapiens, UniProt Q9Y251); assay: Pro-heparanase (H60) activation in a cell-based assay; conditions: inhibition of pro-heparanase activation in CHO cells; NI = no inhibition
T1 construct: Heparanase maturation involves the removal of the signal peptide, transforming the 65 kDa pre-pro-heparanase into a 60 kDa pro-heparanase; made in house
T1 sequence (Q9Y251 36-543): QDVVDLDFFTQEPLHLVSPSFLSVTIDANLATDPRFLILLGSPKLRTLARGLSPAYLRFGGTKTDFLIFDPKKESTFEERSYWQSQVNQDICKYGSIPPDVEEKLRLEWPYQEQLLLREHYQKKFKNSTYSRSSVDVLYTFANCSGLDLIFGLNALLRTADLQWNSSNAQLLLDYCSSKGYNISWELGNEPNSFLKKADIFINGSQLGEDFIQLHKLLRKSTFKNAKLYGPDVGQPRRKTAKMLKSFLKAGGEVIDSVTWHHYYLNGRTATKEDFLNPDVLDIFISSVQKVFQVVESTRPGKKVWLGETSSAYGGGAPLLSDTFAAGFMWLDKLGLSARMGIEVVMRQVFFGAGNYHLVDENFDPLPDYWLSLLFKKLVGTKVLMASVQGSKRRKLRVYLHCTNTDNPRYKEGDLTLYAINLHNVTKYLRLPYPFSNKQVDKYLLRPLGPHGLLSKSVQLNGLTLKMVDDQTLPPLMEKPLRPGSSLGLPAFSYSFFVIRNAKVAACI
Experimental: Pro-heparanase (H60) activation in a cell-based assay: Chinese hamster ovary (CHO) cells were grown in complete F12 medium supplemented with 10% fetal calf serum (FCS). […] The plates were incubated for 24 hours in a 37° C. humidified incubator with 5% CO2. […] The plates were further incubated for additional 4 hours. The pro-heparanase was allowed to internalize by the cells and further processed to generate the active 53 kDa heparanase. At the end of the incubation, the cells were lysed by three consecutive cycles of freezing and thawing in a −80° C. freezer and a 37° C. shaker.
The rigidified compounds described herein were tested for inhibition of pro-heparanase activation in the cell-based assay described above.

[2] = tested on: human prostatic cancer PC3 cells; assay: In-vitro assay for inhibition of cell invasion (PC3); type: cell-based; conditions: PC-3, PC3 cells (second value of cell), read-out: IC50 Invasion MB231/PC3/A375
Experimental: (§1) In-vitro assay for inhibition of cell invasion: The ability of the rigidified compounds described herein to inhibit cell invasion was determined quantitatively using BD Biocoat FluoroBlok Invasion System (BD, cat No. FAL354165). MDA-MB231 breast cancer cells, human prostatic cancer PC3 cells and A375 melanoma cells were used for this assay. Cells (5×10^4 cells/ml) were pre-incubated with the compounds for 48 hours prior to the assay, at 37° C. and a 5% CO2 atmosphere.
(§2) Serial dilutions of each compound starting from a concentration which was previously found to be non-toxic to the cells (using Oxygen Biosensor System, BD), were prepared in DMSO and added to the cells to a final concentration of 1% DMSO. At the end of the pre-incubation, cells at each compound concentration were counted and 2×10^4 cells/well in basic medium were applied onto the top chamber of the insert of the Invasion system. 750 μl complete medium with 5% fetal calf serum was added to the bottom chambers. The tested compound was applied to the top and bottom chambers. Invasion plates were incubated for 22 hours at 37° C. and a 5% CO2 atmosphere. […]
(§3) Fluorescence of invaded cells was read in a fluorescence plate reader BMG POLARstar Galaxy, BMG at excitation/emission wavelength of 485/530 nm.

[3] = tested on: MDA-MB231 breast cancer cells; assay: In-vitro assay for inhibition of cell invasion (MDA-MB231); type: cell-based; conditions: Homo sapiens; MB231 cells (first value of cell); read-out: IC50 Invasion MB231/PC3/A375
Experimental: as §1
Serial dilutions of each compound starting from a concentration which was previously found to be non-toxic to the cells (using Oxygen Biosensor System, BD), were prepared in DMSO and added to the cells to a final concentration of 1% DMSO. At the end of the pre-incubation, cells at each compound concentration were counted and 2×10^4 cells/well in basic medium were applied onto the top chamber of the insert of the Invasion system. 750 μl complete medium with 5% fetal calf serum was added to the bottom chambers. The tested compound was applied to the top and bottom chambers. Invasion plates were incubated for 22 hours at 37° C. and a 5% CO2 atmosphere.
At the end of the incubation, medium was aspirated from the upper chambers and the inserts were transferred to a plate containing Calcein AM (Molecular Probes), 4 μg/ml and incubated for 90 minutes at 37° C. and a 5% CO2 atmosphere.
as §3

[4] = target: T2, vascular endothelial growth factor (VEGF) (Homo sapiens, UniProt P15692); assay: ELISA for determination of binding of VEGF to heparin; conditions: for IC50: inhibition of VEGF binding to heparin, NI = no inhibition; for inhibition of VEGF binding to heparin: inhibition towards both growth factors
T2 sequence (P15692 27-191 isoform P15692-4): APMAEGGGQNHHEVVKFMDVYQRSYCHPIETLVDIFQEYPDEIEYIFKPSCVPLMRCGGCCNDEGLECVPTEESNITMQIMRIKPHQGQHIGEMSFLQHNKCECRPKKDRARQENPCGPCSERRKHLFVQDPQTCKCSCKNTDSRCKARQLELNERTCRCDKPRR
Experimental: Enzyme-linked immunosorbent assay (ELISA) for determination of binding of vascular endothelial growth factor (VEGF) to heparin: 96-well microplates were coated for 2 hours. at 23-25° C. with 5 μg/ml heparin-albumin (Rimon Biotech) and blocked with 1% bovine serum albumin (BSA) in phosphate buffer (PBS) with 0.05% Tween and 0.01% thimerosal for 2 hours. VEGF was added to the plates at a concentration of 10 ng/ml and the plates were thereafter incubated for 45 minutes at 23-25° C. The amount of VEGF bound to heparin was detected using anti-VEGF monoclonal antibody (Sigma Cat. No. V4758) at a concentration of 0.26 μg/ml and secondary antibodies Sheep anti-mouse IgG linked to horseradish peroxidase (1:2000) using 3,3′,5,5′-tetramethylbenzidine (TMB, Pierce Cat. No. 34021) as a substrate for peroxidase. The plates were read at 450 nm with a reference wavelength of 630 nm using a VERSAmax plate reader. […] Percent inhibition was calculated as compared with a control pre-incubated with a solution of 1% DMSO and the results are presented in Table 3 below.

heparanase (H53) = target: T3, heparanase (H53) (Homo sapiens, UniProt Q9Y251); assay: Heparanase (H53) assay (DMB assay); type: biochemical; conditions: for dual activity: inhibition of pro-heparanase activation (H60) and of heparanase activity (H53): compounds with an acidic group; for IC50: inhibition of heparanase activity, DMB assay, NI = no inhibition
T3 construct: The 45 kDa major subunit and the 8 kDa small subunit hetero-complex to form the 53 kDa active form of heparanase
T3 sequence (Q9Y251 36-109 limits assumed): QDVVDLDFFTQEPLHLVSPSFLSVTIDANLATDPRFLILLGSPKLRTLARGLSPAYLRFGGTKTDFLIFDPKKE
T3 sequence (Q9Y251 158-543 limits assumed): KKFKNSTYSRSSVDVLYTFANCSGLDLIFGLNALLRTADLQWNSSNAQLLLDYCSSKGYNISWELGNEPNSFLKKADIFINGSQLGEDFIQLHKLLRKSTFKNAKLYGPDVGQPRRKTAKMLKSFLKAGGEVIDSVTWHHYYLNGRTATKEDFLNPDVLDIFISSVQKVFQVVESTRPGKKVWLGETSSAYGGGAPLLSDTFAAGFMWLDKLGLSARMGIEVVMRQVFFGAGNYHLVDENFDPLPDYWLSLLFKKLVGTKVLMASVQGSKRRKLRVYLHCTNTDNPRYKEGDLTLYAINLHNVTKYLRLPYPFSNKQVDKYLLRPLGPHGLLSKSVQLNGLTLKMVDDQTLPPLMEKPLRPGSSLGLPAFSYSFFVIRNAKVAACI
Experimental: Heparanase (H53) assay: The rigidified compounds described herein were tested for inhibition of heparanase activity in the DMB assay described in U.S. Pat. No. 6,190,875. IC50 was calculated from inhibition curves of all active compounds.

A375 melanoma cells = assay: In-vitro assay for inhibition of cell invasion (A375); type: cell-based; conditions: Homo sapiens, A-375; A375 cells (third value of cell); read-out: IC50 Invasion MB231/PC3/A375
Experimental: as §1, §2, §3

Sequence of β-FGF (P09038 143-288): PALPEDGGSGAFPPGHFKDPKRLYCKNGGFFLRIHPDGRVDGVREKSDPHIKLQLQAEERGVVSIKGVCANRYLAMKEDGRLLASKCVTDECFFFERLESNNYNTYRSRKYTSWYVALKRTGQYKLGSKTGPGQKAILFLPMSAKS

SMILES | IC50 (β-FGF) | IC50 [1] | IC50 [2] | IC50 [3] | IC50 [4] | dual activity: inhibition of pro-heparanase activation (H60) and of heparanase activity (H53) (heparanase (H53)) | IC50 (heparanase (H53)) | inhibition of β-FGF binding to heparin (β-FGF) | inhibition of VEGF binding to heparin [4] | IC50 (A375 melanoma cells)
CC(C)(CC(=O)O)CN1C(=O)c2cc3oc(-c4ccc(Cl)cc4)cc3n2C1=S [Compound 11, 4-[2-(4-chloro-phenyl)-6-oxo-4-thioxo-6H-1-oxa-3b,5-diaza-cyclopenta[a]pentalen-5-yl]-3,3-dimethyl-butyric acid] | 1.8 µM | 0.27 µM | 1.4 µM | 0.75 µM | 1.2 µM | dual activity | 37 µM |  |  | 
CN1CCN(C(=O)CC(C)(C)CN2C(=O)c3cc4oc(-c5ccc(Cl)cc5)cc4n3C2=S)CC1 [Compound 16, 2-(4-Chloro-phenyl)-5-[2,2-dimethyl-4-(4-methyl-piperazin-1-yl)-4-oxo-butyl]-4-thioxo-4,5-dihydro-1-oxa-3b,5-diaza-cyclopenta[a]pentalen-6-one] | 0.2 µM | 0.09 µM |  | 0.035 µM | 0.29 µM |  |  | sub-micromolar | sub-micromolar | 
CCN(CC)C(=O)CCCN1C(=O)c2cc3oc(-c4ccc(Cl)cc4)cc3n2C1=S [Compound 6, 4-[2-(4-chloro-phenyl)-6-oxo-4-thioxo-6H-1-oxa-3b,5-diaza-cyclopenta[a]pentalen-5-yl]-N,N-diethyl-butyramide] | 0.15 µM | 1.2 µM |  | 0.17 µM | 0.16 µM |  |  | sub-micromolar | sub-micromolar | 
O=C(O)CCCN1C(=O)c2cc3oc(-c4ccc([N+](=O)[O-])cc4)cc3n2C1=S [Compound 2, 4-[2-(4-nitro-phenyl)-6-oxo-4-thioxo-6H-1-oxa-3b,5-diaza-cyclopenta[a]pentalen-5-yl]-butyric acid] | 1.7 µM | 1 µM |  | 2.6 µM | 1.8 µM | dual activity | 9 µM |  |  | 
CC(C)(CC(=O)N1CCC[C@H]1C(=O)O)CN1C(=O)c2cc3oc(-c4ccc(Cl)cc4)cc3n2C1=S [Compound 22, 1-{4-[2-(4-Chloro-phenyl)-6-oxo-4-thioxo-6H-1-oxa-3b,5-diaza-cyclopenta[a]pentalen-5-yl]-3,3-dimethyl-butyryl}-pyrrolidine-2-carboxylic acid] | 2.8 µM | 0.23 µM | 0.05 µM | 0.022 µM | 2.4 µM | dual activity | 34.8 µM |  |  | 2 µM
